Converted amounts (≈) assume the structure as drawn.
What was measured:
Staphylococcus aureus = assay: Antibacterial activity against Staphylococcus aureus ATCC 25825 after 24 hrs by twofold serial dilution method; assay type: functional
Escherichia coli = assay: Antibacterial activity against Escherichia coli ATCC 25835 after 24 hrs by twofold serial dilution method; assay type: functional
Aspergillus niger = assay: Antifungal activity against Aspergillus niger after 72 to 96 hrs by twofold serial dilution method; assay type: functional
Klebsiella pneumoniae = assay: Antibacterial activity against Klebsiella pneumoniae ATCC 15490 after 24 hrs by twofold serial dilution method; assay type: functional
Salmonella typhi = assay: Antibacterial activity against Salmonella typhi ATCC 24915 after 24 hrs by twofold serial dilution method; assay type: functional, Salmonella enterica subsp. enterica serovar Typhi; conditions: Salmonella enterica, ATCC 24915, 24 h
Pseudomonas aeruginosa = assay: Antibacterial activity against Pseudomonas aeruginosa ATCC 10145 after 24 hrs by twofold serial dilution method; assay type: functional
Bacillus subtilis = assay: Antibacterial activity against Bacillus subtilis ATCC 451 after 24 hrs by twofold serial dilution method; assay type: functional
Cryptococcus neoformans = assay: Antifungal activity against Cryptococcus neoformans after 72 to 96 hrs by twofold serial dilution method; assay type: functional
Candida albicans = assay: Antifungal activity against Candida albicans after 24 hrs by twofold serial dilution method; assay type: functional

## COc1cccc([C@H]2O[C@@H](c3cccc(OC)c3)[C@H](C)/C(=N/NC(=S)Nc3ccccc3)[C@H]2C)c1
Staphylococcus aureus
  -logMIC: 4.903
Staphylococcus aureus; Staphylococcus aureus, ATCC 25825, 24 h
  MIC: 12.5 µg/mL (≈ 25.5 µM)
Escherichia coli
  -logMIC: 4.301
Escherichia coli; Escherichia coli, ATCC 25835, 24 h
  MIC: 50 µg/mL (≈ 102 µM)
Aspergillus niger
  -logMIC: 4
Aspergillus niger; Aspergillus niger
  MIC: 100 µg/mL (≈ 204 µM)
Klebsiella pneumoniae
  -logMIC: 4
Klebsiella pneumoniae; Klebsiella pneumoniae, ATCC 15490, 24 h
  MIC: 100 µg/mL (≈ 204 µM)
Salmonella typhi
  MIC: 50 µg/mL (≈ 102 µM)
Pseudomonas aeruginosa
  -logMIC: 3.698
Pseudomonas aeruginosa; Pseudomonas aeruginosa, ATCC 10145, 24 h
  MIC: 200 µg/mL (≈ 408 µM)
Bacillus subtilis
  -logMIC: 4.903
Bacillus subtilis; Bacillus subtilis, ATCC 451, 24 h
  MIC: 12.5 µg/mL (≈ 25.5 µM)
Cryptococcus neoformans
  -logMIC: 4
Cryptococcus neoformans; Cryptococcus neoformans
  MIC: 100 µg/mL (≈ 204 µM)
Candida albicans
  -logMIC: 4.602
Candida albicans; Candida albicans, 24 h
  MIC: 25 µg/mL (≈ 51.1 µM)

Source: ChEMBL document CHEMBL1759834, “Synthesis, stereochemistry, antimicrobial evaluation and QSAR studies of 2,6-diaryltetrahydropyran-4-one thiosemicarbazones” (2011)
